Measured values from PubChem BioAssay (NCI).
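Tested at 5 concentrations; 48 h exposure; 96-well plates; endpoints linearly interpolated, else capped at highest concentration. Abbreviation: GI50, concentration required for 50% inhibition of growth. Definition used: TGI = concentration required for complete inhibition of growth.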

Columns and labels:
Assay in all cases: inhibition of tumour cell growth, NCI panel, 48 h
MDA-MB-231 breast = tested on: MDA-MB-231 breast
786-0 renal = tested on: 786-0 renal
SK-MEL-5 melanoma = tested on: SK-MEL-5 melanoma
UO-31 renal = tested on: UO-31 renal
NCI/ADR-RES ovarian = tested on: NCI/ADR-RES ovarian
PC-3 prostate = tested on: PC-3 prostate
KM12 colon = tested on: KM12 colon
OVCAR-3 ovarian = tested on: OVCAR-3 ovarian
OVCAR-4 ovarian = tested on: OVCAR-4 ovarian
NCI-H226 lung = tested on: NCI-H226 lung
NCI-H522 lung = tested on: NCI-H522 lung
SK-MEL-2 melanoma = tested on: SK-MEL-2 melanoma
COLO 205 colon = tested on: COLO 205 colon
A498 renal = tested on: A498 renal
HCC-2998 colon = tested on: HCC-2998 colon
HOP-92 NSCLC = tested on: HOP-92 NSCLC
ACHN renal = tested on: ACHN renal
BT-549 breast = tested on: BT-549 breast
T-47D breast = tested on: T-47D breast
MCF7 breast = tested on: MCF7 breast
MDA-MB-435 = tested on: MDA-MB-435
OVCAR-8 ovarian = tested on: OVCAR-8 ovarian
SN12C renal = tested on: SN12C renal
SK-MEL-28 melanoma = tested on: SK-MEL-28 melanoma
RXF 393 renal = tested on: RXF 393 renal
EKVX NSCLC = tested on: EKVX NSCLC
SF-268 CNS = tested on: SF-268 CNS
MOLT-4 leukemia = tested on: MOLT-4 leukemia
SW-620 colon = tested on: SW-620 colon
HCT-116 colon = tested on: HCT-116 colon
MALME-3M melanoma = tested on: MALME-3M melanoma
A549 NSCLC = tested on: A549 NSCLC
IGROV1 ovarian = tested on: IGROV1 ovarian
M14 melanoma = tested on: M14 melanoma
HOP-62 NSCLC = tested on: HOP-62 NSCLC
SF-539 CNS = tested on: SF-539 CNS
HCT-15 colon = tested on: HCT-15 colon
SNB-19 CNS = tested on: SNB-19 CNS
K-562 leukemia = tested on: K-562 leukemia
OVCAR-5 ovarian = tested on: OVCAR-5 ovarian
NCI-H460 lung = tested on: NCI-H460 lung
UACC-62 melanoma = tested on: UACC-62 melanoma
TK-10 renal = tested on: TK-10 renal
UACC-257 melanoma = tested on: UACC-257 melanoma
DU-145 prostate = tested on: DU-145 prostate
HL-60(TB) leukemia = tested on: HL-60(TB) leukemia
SNB-75 CNS = tested on: SNB-75 CNS
U251 CNS = tested on: U251 CNS
LOX IMVI melanoma = tested on: LOX IMVI melanoma
HT29 colon = tested on: HT29 colon
NCI-H23 lung = tested on: NCI-H23 lung
SK-OV-3 ovarian = tested on: SK-OV-3 ovarian
SF-295 CNS = tested on: SF-295 CNS
HS 578T breast = tested on: HS 578T breast
CAKI-1 renal = tested on: CAKI-1 renal

In the case of CN1CCN(c2cc(F)c(NC3=C(Cl)C(=O)c4ncccc4C3=O)c(F)c2)CC1, the GI50 (MDA-MB-231 breast) is reported as 1940 nM, the TGI (MDA-MB-231 breast) is reported as 3870 nM and the GI50 (786-0 renal) is reported as 1840 nM. The TGI (786-0 renal) was 3800 nM, the GI50 (SK-MEL-5 melanoma) was 1660 nM and the TGI (SK-MEL-5 melanoma) was 3130 nM. The GI50 (UO-31 renal) was 1390 nM, the TGI (UO-31 renal) was 2720 nM and the GI50 (NCI/ADR-RES ovarian) was 2400 nM. The TGI (NCI/ADR-RES ovarian) was 6530 nM, the GI50 (PC-3 prostate) was 1600 nM and the TGI (PC-3 prostate) was 3740 nM. It also gave a GI50 (KM12 colon) of 2010 nM, a TGI (KM12 colon) of 4300 nM and a GI50 (OVCAR-3 ovarian) of 539 nM. It also gave a TGI (OVCAR-3 ovarian) of 2000 nM, a GI50 (OVCAR-4 ovarian) of 1350 nM and a TGI (OVCAR-4 ovarian) of 2650 nM. The GI50 (NCI-H226 lung) was 15700 nM, the TGI (NCI-H226 lung) was 39500 nM and the GI50 (NCI-H522 lung) was 559 nM. It also gave a TGI (NCI-H522 lung) of 2260 nM, a GI50 (SK-MEL-2 melanoma) of 1770 nM and a TGI (SK-MEL-2 melanoma) of 3600 nM. For the same compound, the GI50 (COLO 205 colon) was 2000 nM, the TGI (COLO 205 colon) was 4060 nM and the GI50 (A498 renal) was 10900 nM. For the same compound, the TGI (A498 renal) was 23700 nM, the GI50 (HCC-2998 colon) was 1840 nM and the TGI (HCC-2998 colon) was 3550 nM. It also gave a GI50 (HOP-92 NSCLC) of 1690 nM, a TGI (HOP-92 NSCLC) of 3220 nM and a GI50 (ACHN renal) of 1530 nM. It also gave a TGI (ACHN renal) of 2900 nM, a GI50 (BT-549 breast) of 1630 nM and a TGI (BT-549 breast) of 3060 nM. The GI50 (T-47D breast) was 1820 nM, the TGI (T-47D breast) was 4610 nM and the GI50 (MCF7 breast) was 1070 nM. It also gave a TGI (MCF7 breast) of 2870 nM, a GI50 (MDA-MB-435) of 1660 nM and a TGI (MDA-MB-435) of 3200 nM. It also gave a GI50 (OVCAR-8 ovarian) of 1860 nM, a TGI (OVCAR-8 ovarian) of 4000 nM and a GI50 (SN12C renal) of 1700 nM. For the same compound, the TGI (SN12C renal) was 3290 nM, the GI50 (SK-MEL-28 melanoma) was 1880 nM and the TGI (SK-MEL-28 melanoma) was 3360 nM. For the same compound, the GI50 (RXF 393 renal) was 1640 nM, the TGI (RXF 393 renal) was 3100 nM and the GI50 (EKVX NSCLC) was 1700 nM. For the same compound, the TGI (EKVX NSCLC) was 3190 nM, the GI50 (SF-268 CNS) was 1700 nM and the TGI (SF-268 CNS) was 3440 nM. For the same compound, the GI50 (MOLT-4 leukemia) was 2400 nM, the TGI (MOLT-4 leukemia) was 8830 nM and the GI50 (SW-620 colon) was 1460 nM. The TGI (SW-620 colon) was 3170 nM, the GI50 (HCT-116 colon) was 646 nM and the TGI (HCT-116 colon) was 2260 nM. For the same compound, the GI50 (MALME-3M melanoma) was 1650 nM, the TGI (MALME-3M melanoma) was 3120 nM and the GI50 (A549 NSCLC) was 4210 nM. It also gave a TGI (A549 NSCLC) of 16300 nM, a GI50 (IGROV1 ovarian) of 1530 nM and a TGI (IGROV1 ovarian) of 3370 nM. It also gave a GI50 (M14 melanoma) of 1820 nM, a TGI (M14 melanoma) of 3390 nM and a GI50 (HOP-62 NSCLC) of 2060 nM. It also gave a TGI (HOP-62 NSCLC) of 5180 nM, a GI50 (SF-539 CNS) of 1520 nM and a TGI (SF-539 CNS) of 2910 nM. For the same compound, the GI50 (HCT-15 colon) was 1530 nM, the TGI (HCT-15 colon) was 3060 nM and the GI50 (SNB-19 CNS) was 1940 nM. The TGI (SNB-19 CNS) was 3900 nM, the GI50 (K-562 leukemia) was 651 nM and the TGI (K-562 leukemia) was > 100000 nM. The GI50 (OVCAR-5 ovarian) was 1820 nM, the TGI (OVCAR-5 ovarian) was 3600 nM and the GI50 (NCI-H460 lung) was 2100 nM. The TGI (NCI-H460 lung) was 8490 nM, the GI50 (UACC-62 melanoma) was 1670 nM and the TGI (UACC-62 melanoma) was 3170 nM. For the same compound, the GI50 (TK-10 renal) was 1810 nM, the TGI (TK-10 renal) was 3320 nM and the GI50 (UACC-257 melanoma) was 1430 nM. For the same compound, the TGI (UACC-257 melanoma) was 2780 nM, the GI50 (DU-145 prostate) was 1450 nM and the TGI (DU-145 prostate) was 2940 nM. For the same compound, the GI50 (HL-60(TB) leukemia) was 1650 nM, the TGI (HL-60(TB) leukemia) was 5460 nM and the GI50 (SNB-75 CNS) was 1370 nM. The TGI (SNB-75 CNS) was 5610 nM, the GI50 (U251 CNS) was 1800 nM and the TGI (U251 CNS) was 3440 nM. For the same compound, the GI50 (LOX IMVI melanoma) was 1350 nM, the TGI (LOX IMVI melanoma) was 2840 nM and the GI50 (HT29 colon) was 2000 nM. It also gave a TGI (HT29 colon) of 4040 nM, a GI50 (NCI-H23 lung) of 1400 nM and a TGI (NCI-H23 lung) of 3010 nM. It also gave a GI50 (SK-OV-3 ovarian) of 14700 nM, a TGI (SK-OV-3 ovarian) of 28200 nM and a GI50 (SF-295 CNS) of 1680 nM. It also gave a TGI (SF-295 CNS) of 3230 nM, a GI50 (HS 578T breast) of 2020 nM and a TGI (HS 578T breast) of 5670 nM. For the same compound, the GI50 (CAKI-1 renal) was 1270 nM and the TGI (CAKI-1 renal) was 2520 nM.
CC(=O)OCC1OC(n2c(-c3ccc(C)cc3)cc(-c3ccco3)c(C#N)c2=O)C(OC(C)=O)C(OC(C)=O)C1OC(C)=O (configuration not stated) was tested, and the TGI (HL-60(TB) leukemia) was > 100000 nM and the TGI (SNB-75 CNS) was > 100000 nM.
